Results: patent US20260092061A1, “COMPOUNDS FOR TARGETED PROTEIN DEGRADATION” (Amphista Therapeutics Limited, priority 2022, published 2026)

Key:
BRD9 [1] = target: T1, BRD9 (Homo sapiens, UniProt Q9H8M2); experiment: BRD9 degradation, HiBiT-BRD9 KI HEK293 (LgBiT) cells, NanoGlo Lytic Endpoint assay (Assay Protocol 1); format: cell-based; conditions: BRD9 degradation; for Dmax at 1 µM / Dmax: HEK293; for Dmax at 1 µM: 1 μM compound at 6 h of treatment, read-out: Assay 1 Dmax
T1 sequence (Q9H8M2 1-597): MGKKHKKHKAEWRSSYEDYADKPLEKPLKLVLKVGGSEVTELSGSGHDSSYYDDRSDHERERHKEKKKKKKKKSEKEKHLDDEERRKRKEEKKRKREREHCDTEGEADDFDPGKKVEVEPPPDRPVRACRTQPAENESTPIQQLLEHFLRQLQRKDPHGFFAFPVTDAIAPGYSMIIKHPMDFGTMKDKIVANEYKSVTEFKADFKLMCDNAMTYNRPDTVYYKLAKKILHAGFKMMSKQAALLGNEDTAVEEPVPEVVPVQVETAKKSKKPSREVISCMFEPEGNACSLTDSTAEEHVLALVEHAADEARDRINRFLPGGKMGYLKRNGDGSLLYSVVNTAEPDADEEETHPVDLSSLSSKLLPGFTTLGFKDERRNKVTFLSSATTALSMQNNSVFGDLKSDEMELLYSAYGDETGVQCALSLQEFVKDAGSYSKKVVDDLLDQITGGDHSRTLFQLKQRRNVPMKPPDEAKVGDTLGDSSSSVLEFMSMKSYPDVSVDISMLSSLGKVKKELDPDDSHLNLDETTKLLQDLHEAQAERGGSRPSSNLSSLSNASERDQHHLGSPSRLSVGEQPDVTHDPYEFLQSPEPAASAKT
Summary of the method: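 HiBiT-tagged BRD9 knock-in HEK293 (LgBiT) cells exposed to compounds for 6 h at 37 °C, 5% CO2. Residual BRD9 measured by HiBiT lytic luminescence. % BRD9 remaining normalised to DMSO-treated cells (high) and no-cell wells (low).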

BRD9 [2] = target: T1, BRD9; experiment: Degradation of BRD9 (IF), immunofluorescence in MV4-11 cells, 24 hours (Assay Protocol 2); format: cell-based; parameters: A suspension of MV4-11 cells (ATCC CRL-9591) was prepared; host or cells: MV4-11
Summary of the method: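 % BRD9 remaining, scaled between DMSO (high) and 100 nM CFT-8634 (low) control wells, derives from mean Alexa 647 contrast in central nuclei by high-content imaging. MV4-11 cells had 24 h compound exposure at 37° C. before PFA fixation, Triton permeabilisation and anti-BRD9 E4Q3F immunostaining.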

[3] = Table 2, Assay Protocol 1, 6 h of treatment, read-out: Assay 1 DC50
[4] = MV4-11, 24 h, Table 2, BRD9 degradation (IF), Assay Protocol 2, MV4-11 cells, read-out: Assay 2 DCmax
[5] = Table 2, BRD9 degradation (IF), Assay Protocol 2, MV4-11 cells, read-out: Assay 2 DC50
[6] = Assay protocol 1, read-out: DC50
[7] = Assay protocol 1, read-out: Dmax
[8] = Assay protocol 2, BRD9 degradation, read-out: DC50
[9] = MV4-11, Assay protocol 2, BRD9 degradation, read-out: Dmax

Dmax at 1 µM (BRD9 [1]; Table 2, Assay Protocol 1) [%]	DC50 (BRD9 [1]; [3]) [nM]	Dmax (BRD9 [2]; [4]) [%]	DC50 (BRD9 [1]; [6]) [nM]	Dmax (BRD9 [1]; [7]) [%]	DC50 (BRD9 [2]; [8]) [nM]	Dmax (BRD9 [2]; [9]) [%]	SMILES	further results
40 to 70	10 to 25	40 to 70	–	–	–	–	COc1cc(-c2cn(C)c(=O)c3cnccc23)cc(OC)c1CN1CCN(Cc2cccc3c2CCN(C(=O)/C(C#N)=C/c2ncccc2F)C3C)CC1 (mixture of isomers) [Compound A42, (E/Z)-2-[5-[[4-[[2,6-dimethoxy-4-(2-methyl-1-oxo-2,7-naphthyridin-4-yl)phenyl]methyl]piperazin-1-yl]methyl]-1-methyl-3,4-dihydro-1H-isoquinoline-2-carbonyl]-3-(3-fluoro-2-pyridyl)prop-2-enenitrile]	DC50 (BRD9 [2]; [5]): < 1.25 nM
–	–	–	< 1.25	40 to 70	10 to 25	40 to 70	COc1cc(-c2cn(C)c(=O)c(C)c2C)cc(OC)c1CN1CCN(Cc2cccc3c2CCN(C(=O)/C(C#N)=C/c2ncccc2C(F)(F)F)C3C)CC1 (mixture of isomers) [Compound B49, (E/Z)-2-(5-((4-(2,6-dimethoxy-4-(1,4,5-trimethyl-6-oxo-1,6-dihydropyridin-3-yl)benzyl)piperazin-1-yl)methyl)-1-methyl-1,2,3,4-tetrahydroisoquinoline-2-carbonyl)-3-(3-(trifluoromethyl)pyridin-2-yl)acrylonitrile]	–
40 to 70	< 1.25	40 to 70	–	–	–	–	COc1cc(-c2cn(C)c(=O)c3cnccc23)cc(OC)c1CN1CCN(Cc2cccc3c2CCN(C(=O)/C(C#N)=C/C(C)(C)C)[C@@H]3C)CC1 (single isomer, unassigned) [Compound A25, (E/Z)-2-(5-((4-(2,6-dimethoxy-4-(2-methyl-1-oxo-1,2-dihydro-2,7-naphthyridin-4-yl)benzyl)piperazin-1-yl)methyl)-1-methyl-1,2,3,4-tetrahydroisoquinoline-2-carbonyl)-4,4-dimethylpent-2-enenitrile]	–
–	–	–	1.25 to 10	> 75	1.25 to 10	> 75	COc1cc(-c2cn(C)c(=O)c(C)c2C)cc(OC)c1CN(C)Cc1cccc2c1CCN(C(=O)/C(C#N)=C/c1cccc(Br)n1)C2C (mixture of isomers) [Compound B14, (E/Z)-3-(6-bromopyridin-2-yl)-2-(5-(((2,6-dimethoxy-4-(1,4,5-trimethyl-6-oxo-1,6-dihydropyridin-3-yl)benzyl)(methyl)amino)methyl)-1-methyl-1,2,3,4-tetrahydroisoquinoline-2-carbonyl)acrylonitrile]	–
40 to 70	1.25 to 10	40 to 70	–	–	–	–	COc1cc(-c2cn(C)c(=O)c(C)c2C)cc(OC)c1CN1CCN(Cc2cccc3c2CCN(C(=O)/C(C#N)=C/c2cccc(C(F)(F)F)n2)C3C)CC1 (mixture of isomers) [Compound A53, (E/Z)-2-(5-((4-(2,6-dimethoxy-4-(1,4,5-trimethyl-6-oxo-1,6-dihydropyridin-3-yl)benzyl)piperazin-1-yl)methyl)-1-methyl-1,2,3,4-tetrahydroisoquinoline-2-carbonyl)-3-(6-(trifluoromethyl)pyridin-2-yl)acrylonitrile]	–
40 to 70	1.25 to 10	40 to 70	–	–	–	–	COc1cc(-c2cn(C)c(=O)c(C)c2C)cc(OC)c1CN1CCN(Cc2cccc3c2CCN(C(=O)/C(C#N)=C/C(C)(C)C)C3C)CC1 (mixture of isomers) [Compound A7, (E/Z)-2-(5-((4-(2,6-dimethoxy-4-(1,4,5-trimethyl-6-oxo-1,6-dihydropyridin-3-yl)benzyl)piperazin-1-yl)methyl)-1-methyl-1,2,3,4-tetrahydroisoquinoline-2-carbonyl)-4,4-dimethylpent-2-enenitrile]	DC50 (BRD9 [2]; [5]): 10 to 25 nM

The remaining lines, values behind:

SMILES	Dmax at 1 µM (BRD9 [1]; Table 2, Assay Protocol 1) [%]	DC50 (BRD9 [1]; [3]) [nM]	Dmax (BRD9 [2]; [4]) [%]	DC50 (BRD9 [1]; [6]) [nM]	Dmax (BRD9 [1]; [7]) [%]	DC50 (BRD9 [2]; [8]) [nM]	Dmax (BRD9 [2]; [9]) [%]	further results
COc1cc(-c2cn(C)c(=O)c(C)c2C)cc(OC)c1CN1CCN(Cc2cccc(C3CCCN3C(=O)/C(C#N)=C/c3nc(C(F)(F)F)cs3)c2)CC1 (centres unmarked) [Compound B56]	–	–	–	< 1.25	> 75	< 1.25	> 75	–
COc1cc(-c2cn(C)c(=O)c(C)c2C)cc(OC)c1CN1CCN(Cc2cccc3c2CCN(C(=O)/C(C#N)=C/C(C)(C)C)C3(C)C)C2(CC2)C1 [Compound C9, (E/Z)-2-(5-((7-(2,6-dimethoxy-4-(1,4,5-trimethyl-6-oxo-1,6-dihydropyridin-3-yl)benzyl)-4,7-diazaspiro[2.5]octan-4-yl)methyl)-1,1-dimethyl-1,2,3,4-tetrahydroisoquinoline-2-carbonyl)-4,4-dimethylpent-2-enenitrile]	–	–	–	25 to 1000	70 to 75	25 to 1000	40 to 70	–
CCCC(c1ccccc1CCC(=O)N1CCN(Cc2c(OC)cc(-c3cn(C)c(=O)c(C)c3C)cc2OC)CC1)N(C)C(=O)/C(C#N)=C/c1nccs1 (mixture of isomers) [Compound B186, (E/Z)-2-cyano-N-(1-(2-(3-(4-(2,6-dimethoxy-4-(1,4,5-trimethyl-6-oxo-1,6-dihydropyridin-3-yl)benzyl)piperazin-1-yl)-3-oxopropyl)phenyl)butyl)-N-methyl-3-(thiazol-2-yl)acrylamide]	–	–	–	1.25 to 10	> 75	< 1.25	> 75	–
COc1cc(-c2cn(C)c(=O)c3ccsc23)cc(OC)c1CN1CCN(C(=O)/C(C#N)=C/C(C)(C)C)CC1 [BRD9w, (E/Z)-2-(4-(2,6-dimethoxy-4-(5-methyl-4-oxo-4,5-dihydrothieno[3,2-c]pyridin-7-yl)benzyl)piperazine-1-carbonyl)-4,4-dimethylpent-2-enenitrile]	–	–	–	–	–	–	–	Dmax (BRD9 [1]; Table 4, determined according to Assay Protocol 1, read-out: Dmax^1): > 70%; DC50 (BRD9 [1]; Table 4, determined according to Assay Protocol 1, read-out: DC50^1): < 25 nM; Dmax (BRD9 [2]; MV4-11, Table 4, BRD9 degradation, determined according to Assay Protocol 2, read-out: Dmax^2): > 70%; DC50 (BRD9 [2]; Table 4, BRD9 degradation, determined according to Assay Protocol 2, read-out: DC50^2): < 25 nM
COc1cc(-c2cn(C)c(=O)c3cc(C(=O)NCCOc4ccc5c(c4)CCN(C(=O)/C(C#N)=C/c4nccs4)C5C)sc23)cc(OC)c1CN(C)C (mixture of isomers) [Compound A74]	40 to 70	25 to 300	40 to 70	–	–	–	–	DC50 (BRD9 [2]; [5]): 1.25 to 10 nM
COc1cc(-c2cn(C)c(=O)c(C)c2C)cc(OC)c1CN1CCN(CC(=O)NCCOc2cccc(C3CCCN3C(=O)/C(C#N)=C/c3nccs3)c2)CC1 (mixture of isomers) [Compound B32, (E/Z)—N-(2-(3-(1-(2-cyano-3-(thiazol-2-yl)acryloyl)pyrrolidin-2-yl)phenoxy)ethyl)-2-(4-(2,6-dimethoxy-4-(1,4,5-trimethyl-6-oxo-1,6-dihydropyridin-3-yl)benzyl)piperazin-1-yl)acetamide]	–	–	–	25 to 1000	40 to 70	25 to 1000	40 to 70	–
COc1cc(-c2cn(C)c(=O)c(C)c2C)cc(OC)c1CN1CC2CC(C1)N2Cc1cccc2c1CCN(C(=O)/C(C#N)=C/c1ccnc(C)n1)C2C (mixture of isomers) [Compound B25, (E/Z)-2-(5-((3-(2,6-dimethoxy-4-(1,4,5-trimethyl-6-oxo-1,6-dihydropyridin-3-yl)benzyl)-3,6-diazabicyclo[3.1.1]heptan-6-yl)methyl)-1-methyl-1,2,3,4-tetrahydroisoquinoline-2-carbonyl)-3-(2-methylpyrimidin-4-yl)acrylonitrile]	–	–	–	1.25 to 10	> 75	1.25 to 10	> 75	–
